According to patent publication US8536332B2, “Modulating signal transduction pathways with substituted pyridol [2,3-b] pyrazines” (Aeterna Zentaris GmbH, priority 2007, dated 2013):

Compared with `COc1ccc(-c2ccc3ncc(NC(=O)Nc4ccc(F)cc4)nc3n2)cc1OC` [Compound 572, 1-[6-(3,4-Dimethoxy-phenyl)-pyrido[2,3-b]pyrazin-3-yl]-3-(4-fluoro-phenyl)-urea], `COc1cc(-c2ccc3ncc(NC(=O)Nc4ccc(Cl)cc4)nc3n2)ccc1O` [Compound 529, 1-(4-Chloro-phenyl)-3-[6-(4-hydroxy-3-methoxy-phenyl)-pyrido[2,3-b]pyrazin-3-yl]-urea] is lower in melting point: 269 to 271 °C for the first, 224 to 226 °C for the second.

First: O=C(Nc1cnc2ccc(-c3cc(Cl)c(O)c(Cl)c3)nc2n1)Nc1cccs1 [Compound 560, 1-[6-(3,5-Dichloro-4-hydroxy-phenyl)-pyrido[2,3-b]pyrazin-3-yl]-3-thiophen-2-yl-urea]
Second: CCCNC(=O)Nc1cnc2ccc(-c3cc(Cl)c(O)c(Cl)c3)nc2n1 [Compound 551, 1-[6-(3,5-Dichloro-4-hydroxy-phenyl)-pyrido[2,3-b]pyrazin-3-yl]-3-propyl-urea]
The melting point of the first is lower: 253 to 255 °C for the first, 265 to 268 °C for the second.

First: CCNC(=O)Nc1cnc2ccc(-c3cc(C)c(OC)c(C)c3)nc2n1 [Compound 586, 1-Ethyl-3-[6-(4-methoxy-3,5-dimethyl-phenyl)-pyrido[2,3-b]pyrazin-3-yl]-urea]
Second: CCNC(=O)Nc1cnc2ccc(-c3cc(C)cc(Br)c3OC)nc2n1 [Compound 639, 1-[6-(3-Bromo-2-methoxy-5-methyl-phenyl)-pyrido[2,3-b]pyrazin-3-yl]-3-ethyl-urea]
The melting point of the first is lower: 240 to 241 °C for the first, 250 to 252 °C for the second.

First: COc1cc(-c2ccc3ncc(NC(=O)Nc4ccccc4[N+](=O)[O-])nc3n2)ccc1O [Compound 617, 1-[6-(4-Hydroxy-3-methoxy-phenyl)-pyrido[2,3-b]pyrazin-3-yl]-3-(2-nitro-phenyl)-urea]
Second: COc1cc(-c2ccc3ncc(NC(=O)Nc4ccc([N+](=O)[O-])cc4)nc3n2)ccc1O [Compound 616, 1-[6-(4-Hydroxy-3-methoxy-phenyl)-pyrido[2,3-b]pyrazin-3-yl]-3-(4-nitro-phenyl)-urea]
The melting point of the first is lower: 220 to 222 °C for the first, 247 to 250 °C for the second.

Compared with `CCNC(=O)Nc1ccc2ncc(-c3cc(C)cc(C)c3)nc2n1` [Compound 82, 1-[3-(3,5-Dimethyl-phenyl)-pyrido[2,3-b]pyrazin-6-yl]-3-ethyl-urea], `CCNC(=O)Nc1ccc2ncc(-c3cc(C)cc(Br)c3)nc2n1` [Compound 94, 1-[3-(3-Bromo-5-methyl-phenyl)-pyrido[2,3-b]pyrazin-6-yl]-3-ethyl-urea] is higher in melting point: 255.3 to 257.9 °C for the first, 270 to 274 °C for the second.

Going from `CCNC(=S)Nc1ccc2ncc(Nc3cc(OC)cc(OC)c3)nc2n1` [Compound 157, 1-[3-(3,5-Dimethoxy-phenylamino)-pyrido[2,3-b]pyrazin-6-yl]-3-ethyl-thiourea] to `CCNC(=S)Nc1ccc2ncc(Nc3ccc(C)c(OC)c3)nc2n1` [Compound 162, 1-Ethyl-3-[3-(3-methoxy-4-methyl-phenylamino)-pyrido[2,3-b]pyrazin-6-yl]-thiourea], the melting point rises from 265 °C to 288 °C.

Compared with `CCNC(=O)Nc1ccc2ncc(Nc3ccc(O)c(C)c3)nc2n1` [Compound 86, 1-Ethyl-3-[3-(4-hydroxy-3-methyl-phenylamino)-pyrido[2,3-b]pyrazin-6-yl]-urea], `CCNC(=O)Nc1ccc2ncc(Nc3ccc(O)cc3C)nc2n1` [Compound 394, 1-Ethyl-3-[3-(4-hydroxy-2-methyl-phenylamino)-pyrido[2,3-b]pyrazin-6-yl]-urea] is lower in melting point: 277 to 280 °C for the first, 272 °C for the second.

First: CCNC(=O)Nc1ccc2ncc(-c3cccc(SC)c3)nc2n1 [Compound 117, 1-Ethyl-3-[3-(3-methylsulfanyl-phenyl)-pyrido[2,3-b]pyrazin-6-yl]-urea]
Second: CCNC(=O)Nc1ccc2ncc(-c3cccc(Cl)c3)nc2n1 [Compound 111, 1-[3-(3-Chloro-phenyl)-pyrido[2,3-b]pyrazin-6-yl]-3-ethyl-urea]
The melting point of the first is lower: 221 to 224 °C for the first, 262 to 264 °C for the second.

Compared with `CCNC(=O)Nc1ccc2ncc(Nc3cccc(N(C)C)c3)nc2n1` [Compound 374, 1-[3-(3-Dimethylamino-phenylamino)-pyrido[2,3-b]pyrazin-6-yl]-3-ethyl-urea], `CCNC(=O)Nc1ccc2ncc(Nc3ccc(C(=O)OC)c(OC)c3)nc2n1` [Compound 87, 4-[6-(3-Ethyl-ureido)-pyrido[2,3-b]pyrazin-3-ylamino]-2-methoxy-benzoic acid methyl ester] is higher in melting point: 215 °C for the first, 256 to 259 °C for the second.

Compared with `CCNC(=S)Nc1ccc2ncc(-c3ccc(C)cc3)nc2n1` [Compound 124, 1-Ethyl-3-(3-p-tolyl-pyrido[2,3-b]pyrazin-6-yl)-thiourea], `CCNC(=S)Nc1cnc2ccc(Nc3ccc(C)cc3)nc2n1` [Compound 25, 1-Ethyl-3-(6-p-tolylamino-pyrido[2,3-b]pyrazin-3-yl)-thiourea] is lower in melting point: 246 °C for the first, 195 °C for the second.

Compared with `CCNC(=O)Nc1ccc2ncc(-c3cc(Cl)c(OS(C)(=O)=O)c(OC)c3)nc2n1` [Compound 37, Methanesulfonic acid 2-chloro-4-[6-(3-ethyl-ureido)-pyrido[2,3-b]pyrazin-3-yl]-6-methoxy-phenyl ester], `CCNC(=O)Nc1ccc2ncc(-c3ccc(OC)cc3C)nc2n1` [Compound 98, 1-Ethyl-3-[3-(4-methoxy-2-methyl-phenyl)-pyrido[2,3-b]pyrazin-6-yl]-urea] is lower in melting point: 247 to 249 °C for the first, 223 to 225 °C for the second.

First: CCNC(=S)Nc1ccc2ncc(Nc3ccc(O)c([N+](=O)[O-])c3)nc2n1 [Compound 491, 1-Ethyl-3-[3-(4-hydroxy-3-nitro-phenylamino)-pyrido[2,3-b]pyrazin-6-yl]-thiourea]
Second: CCNC(=S)Nc1ccc2ncc(Nc3ccc(F)c([N+](=O)[O-])c3)nc2n1 [Compound 489, 1-Ethyl-3-[3-(4-fluoro-3-nitro-phenylamino)-pyrido[2,3-b]pyrazin-6-yl]-thiourea]
The melting point of the first is lower: 250 °C for the first, 260 °C for the second.

First: COc1cc(-c2ccc3ncc(NC(=O)Nc4ccnc(N5CCOCC5)c4)nc3n2)ccc1O [Compound 607, 1-[6-(4-Hydroxy-3-methoxy-phenyl)-pyrido[2,3-b]pyrazin-3-yl]-3-(2-morpholin-4-yl-pyridin-4-yl)-urea]
Second: COc1cc(-c2ccc3ncc(NC(=O)NC4CCCCCCC4)nc3n2)ccc1O [Compound 604, 1-Cyclooctyl-3-[6-(4-hydroxy-3-methoxy-phenyl)-pyrido[2,3-b]pyrazin-3-yl]-urea]
The melting point of the first is higher: 260 to 263 °C for the first, 232 to 234 °C for the second.

First: Cc1cc(-c2ccc3ncc(NC(=O)NCCc4ccccc4)nc3n2)cc(C)c1O [Compound 588, 1-[6-(4-Hydroxy-3,5-dimethyl-phenyl)-pyrido[2,3-b]pyrazin-3-yl]-3-phenethyl-urea]
Second: Cc1cc(-c2ccc3ncc(NC(=O)Nc4ccccc4)nc3n2)cc(C)c1O [Compound 595, 1-[6-(4-Hydroxy-3,5-dimethyl-phenyl)-pyrido[2,3-b]pyrazin-3-yl]-3-phenyl-urea]
The melting point of the first is lower: 267 to 269 °C for the first, 271 to 273 °C for the second.

First: CCNC(=O)Nc1ccc2ncc(Nc3ccc4c(c3)OC(F)(F)O4)nc2n1 [Compound 42, 1-[3-(2,2-Difluoro-benzo[1,3]dioxol-5-ylamino)-pyrido[2,3-b]pyrazin-6-yl]-3-ethyl-urea]
Second: CCNC(=O)Nc1cnc2ccc(Nc3cc(Cl)c(O)c(Cl)c3)nc2n1 [Compound 15, 1-[6-(3,5-Dichloro-4-hydroxy-phenylamino)-pyrido[2,3-b]pyrazin-3-yl]-3-ethyl-urea]
The melting point of the first is lower: 238 to 241 °C for the first, 272 °C for the second.

First: CCNC(=O)Nc1cnc2ccc(N3CCC(O)CC3)nc2n1 [Compound 235, 1-Ethyl-3-[6-(4-hydroxy-piperidin-1-yl)-pyrido[2,3-b]pyrazin-3-yl]-urea]
Second: CCNC(=O)Nc1ccc2ncc(Nc3ccc(C(=O)N4CCOCC4)cc3)nc2n1 [Compound 48, 1-Ethyl-3-{3-[4-(morpholine-4-carbonyl)-phenylamino]-pyrido[2,3-b]-pyrazin-6-yl}-urea]
The melting point of the first is lower: 249 to 251 °C for the first, 276 to 279 °C for the second.

First: CCNC(=O)Nc1ccc2ncc(-c3ccc4c(c3)N(C)CCO4)nc2n1 [Compound 35, 1-Ethyl-3-[3-(4-methyl-3,4-dihydro-2H-benzo[1,4]oxazin-6-yl)-pyrido[2,3-b]pyrazin-6-yl]-urea]
Second: CCNC(=O)Nc1ccc2ncc(-c3ccc(C)c([N+](=O)[O-])c3)nc2n1 [Compound 85, 1-Ethyl-3-[3-(4-methyl-3-nitro-phenyl)-pyrido[2,3-b]pyrazin-6-yl]-urea]
The melting point of the first is lower: 245 to 247 °C for the first, 253.3 to 256.2 °C for the second.

Compared with `CCNC(=O)Nc1cnc2ccc(-c3cccc(OC(C)C)c3)nc2n1` [Compound 177, 1-Ethyl-3-[6-(3-isopropoxy-phenyl)-pyrido[2,3-b]pyrazin-3-yl]-urea], `CCNC(=O)Nc1ccc2ncc(-c3cccc(Cl)c3F)nc2n1` [Compound 99, 1-[3-(3-Chloro-2-fluoro-phenyl)-pyrido[2,3-b]pyrazin-6-yl]-3-ethyl-urea] is higher in melting point: 234 to 237 °C for the first, 275 °C for the second.

First: CCNC(=S)Nc1ccc2ncc(Nc3ccccc3OC)nc2n1 [Compound 332, 1-Ethyl-3-[3-(2-methoxy-phenylamino)-pyrido[2,3-b]pyrazin-6-yl]-thiourea]
Second: COCCNC(=S)Nc1ccc2ncc(Nc3cc(OC)c(OC)c(OC)c3)nc2n1 [Compound 705, 1-(2-Methoxy-ethyl)-3-[3-(3,4,5-trimethoxy-phenylamino)-pyrido[2,3-b]pyrazin-6-yl]-thiourea]
The melting point of the first is lower: 232 °C for the first, 243 to 245 °C for the second.

Work on `CCNC(=O)Nc1ccc2ncc(-c3ccc(-c4ccccc4)cc3)nc2n1` [Compound 123, 1-(3-Biphenyl-4-yl-pyrido[2,3-b]pyrazin-6-yl)-3-ethyl-urea] yielded a melting point of 280 °C.

Work on `CCNC(=O)Nc1ccc2ncc(-c3ccc(NC(=O)OCCOCCOCCOC)c(OC)c3)nc2n1` [Compound 44, {4-[6-(3-Ethyl-ureido)-pyrido[2,3-b]pyrazin-3-yl]-2-methoxy-phenyl}-carbamic acid 2-[2-(2-methoxy-ethoxy)-ethoxy]-ethyl ester] yielded a melting point greater than 330 °C.
With `CCNC(=O)Nc1ccc2ncc(-c3ccc(N)c([N+](=O)[O-])c3)nc2n1` [Compound 78, 1-[3-(4-Amino-3-nitro-phenyl)-pyrido[2,3-b]pyrazin-6-yl]-3-ethyl-urea] the melting point was greater than 350 °C.
